According to ChEMBL document CHEMBL5096176, “AAA ATPases as therapeutic targets: Structure, functions, and small-molecule inhibitors” (Eur J Med Chem, 2021):

What was measured:
[1] = Selectivity index, ratio of CC50 for MDCK cells to EC50 for Oseltamivir-resisitant Influenza A virus (A/North Carolina/39/2009 (H1N1)) infected in MDCK cells; format: toxicity, cell-based; conditions: dog, read-out: Ratio CC50/EC50
[2] = Selectivity index, ratio of CC50 for MDCK cells to EC50 for Influenza A virus (A/Texas/04/2009 (H1N1)) infected in MDCK cells; format: toxicity, cell-based; conditions: dog, read-out: Ratio CC50/EC50
[3] = tested on: Influenza A virus; assay: Antiviral activity against Influenza A virus (A/Denmark/528/2009 (H1N1)) infected in MDCK cells over expressing ST6Gal I assessed as inhibition of viral replication by plaque assay; format: functional, organism-based
[4] = tested on: Influenza A virus; assay: Antiviral activity against Influenza A virus (A/Texas/04/2009 (H1N1)) infected in MDCK cells over expressing ST6Gal I assessed as inhibition of viral replication by plaque assay; format: functional, organism-based
[5] = tested on: Cytomegalovirus; assay: Antiviral activity against human Cytomegalovirus infected in human fibroblast cells assessed as viral growth inhibition preincubated for 24 hrs with compound followed by viral infection by plaque assay; format: functional, organism-based; conditions: Human betaherpesvirus 5, Fibroblast
[6] = Selectivity index, ratio of CC50 for MDCK cells to EC50 for Influenza A virus (A/Denmark/528/2009 (H1N1)) infected in MDCK cells; format: toxicity, cell-based; conditions: dog, read-out: Ratio CC50/EC50
[7] = tested on: Hep 3B2; assay: Anticancer activity against human Hep3B cells assessed as inhibition of cell proliferation incubated for 4 days by MTS assay; format: functional, cell-based; conditions: 96 h
[8] = tested on: Huh-7; assay: Anticancer activity against human Huh-7 cells assessed as inhibition of cell proliferation incubated for 4 days by MTS assay; format: functional, cell-based; conditions: Huh-7, 96 h
[9] = tested on: HeLa; assay: Anticancer activity against human HeLa cells assessed as cell growth inhibition; format: functional, cell-based
[10] = tested on: Schizosaccharomyces pombe; assay: Antifungal activity against Schizosaccharomyces pombe assessed as fungal growth inhibition incubated for 18 hrs by absorbance based assay; format: functional
[11] = target: T1, Spastin (Homo sapiens, UniProt Q9UBP0); assay: Inhibition of human Spastin in presence of ATP
T1 sequence (Q9UBP0 whole entry): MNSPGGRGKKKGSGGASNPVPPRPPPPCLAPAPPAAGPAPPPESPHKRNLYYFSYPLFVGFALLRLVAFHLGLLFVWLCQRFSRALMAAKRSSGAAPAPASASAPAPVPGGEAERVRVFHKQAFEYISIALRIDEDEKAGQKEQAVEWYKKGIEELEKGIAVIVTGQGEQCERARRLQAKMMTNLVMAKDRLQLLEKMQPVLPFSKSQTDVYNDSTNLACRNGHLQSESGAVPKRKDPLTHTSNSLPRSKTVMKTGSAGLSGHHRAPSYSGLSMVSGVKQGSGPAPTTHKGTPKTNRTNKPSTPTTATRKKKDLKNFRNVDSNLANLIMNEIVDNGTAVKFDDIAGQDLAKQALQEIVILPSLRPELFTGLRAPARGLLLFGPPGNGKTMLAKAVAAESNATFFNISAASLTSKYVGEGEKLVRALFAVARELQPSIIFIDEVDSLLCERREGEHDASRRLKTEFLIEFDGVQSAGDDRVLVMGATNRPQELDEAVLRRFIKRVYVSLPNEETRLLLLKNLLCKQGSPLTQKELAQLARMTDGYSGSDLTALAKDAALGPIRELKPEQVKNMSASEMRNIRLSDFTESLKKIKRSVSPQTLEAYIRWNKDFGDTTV

[12] = target: T2, Spastin (Drosophila melanogaster, UniProt Q8I0P1); assay: Inhibition of wild-type Drosophila melanogaster Spastin (209 to 758 residues) in presence of ATP by NADH-coupled fluorescence assay
T2 sequence (Q8I0P1 whole entry): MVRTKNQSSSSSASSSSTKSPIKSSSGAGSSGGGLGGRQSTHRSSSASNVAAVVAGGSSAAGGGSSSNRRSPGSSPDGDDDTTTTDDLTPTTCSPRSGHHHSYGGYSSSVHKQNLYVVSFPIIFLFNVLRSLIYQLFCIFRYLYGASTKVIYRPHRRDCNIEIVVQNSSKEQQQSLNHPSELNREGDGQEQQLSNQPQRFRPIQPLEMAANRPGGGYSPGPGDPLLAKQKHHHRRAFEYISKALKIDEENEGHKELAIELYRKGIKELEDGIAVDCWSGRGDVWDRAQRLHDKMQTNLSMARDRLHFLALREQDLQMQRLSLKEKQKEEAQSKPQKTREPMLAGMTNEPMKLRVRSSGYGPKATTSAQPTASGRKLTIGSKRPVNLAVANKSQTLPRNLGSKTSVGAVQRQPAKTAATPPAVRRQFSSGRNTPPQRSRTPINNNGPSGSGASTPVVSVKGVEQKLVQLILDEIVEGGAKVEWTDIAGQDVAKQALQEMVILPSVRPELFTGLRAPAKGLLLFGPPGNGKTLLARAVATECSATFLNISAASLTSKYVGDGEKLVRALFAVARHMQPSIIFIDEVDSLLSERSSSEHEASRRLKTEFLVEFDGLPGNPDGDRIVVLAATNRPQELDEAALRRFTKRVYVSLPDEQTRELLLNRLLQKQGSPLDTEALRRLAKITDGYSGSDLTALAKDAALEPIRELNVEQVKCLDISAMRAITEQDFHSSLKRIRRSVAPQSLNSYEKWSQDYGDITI

[13] = Inhibition of Drosophila melanogaster Spastin N527C mutant (209 to 758 residues) in presence of ATP by NADH-coupled fluorescence assay
[14] = target: T3, Transitional endoplasmic reticulum ATPase (Homo sapiens, UniProt P55072); assay: Inhibition of p97 (unknown origin) in presence of ATP by Biomol Green Reagent based assay
[15] = target: T3, Transitional endoplasmic reticulum ATPase; assay: Inhibition of p97 (unknown origin) incubated for 15 mins in presence of ATP by ADP Glo assay

T3 sequence (P55072 whole entry): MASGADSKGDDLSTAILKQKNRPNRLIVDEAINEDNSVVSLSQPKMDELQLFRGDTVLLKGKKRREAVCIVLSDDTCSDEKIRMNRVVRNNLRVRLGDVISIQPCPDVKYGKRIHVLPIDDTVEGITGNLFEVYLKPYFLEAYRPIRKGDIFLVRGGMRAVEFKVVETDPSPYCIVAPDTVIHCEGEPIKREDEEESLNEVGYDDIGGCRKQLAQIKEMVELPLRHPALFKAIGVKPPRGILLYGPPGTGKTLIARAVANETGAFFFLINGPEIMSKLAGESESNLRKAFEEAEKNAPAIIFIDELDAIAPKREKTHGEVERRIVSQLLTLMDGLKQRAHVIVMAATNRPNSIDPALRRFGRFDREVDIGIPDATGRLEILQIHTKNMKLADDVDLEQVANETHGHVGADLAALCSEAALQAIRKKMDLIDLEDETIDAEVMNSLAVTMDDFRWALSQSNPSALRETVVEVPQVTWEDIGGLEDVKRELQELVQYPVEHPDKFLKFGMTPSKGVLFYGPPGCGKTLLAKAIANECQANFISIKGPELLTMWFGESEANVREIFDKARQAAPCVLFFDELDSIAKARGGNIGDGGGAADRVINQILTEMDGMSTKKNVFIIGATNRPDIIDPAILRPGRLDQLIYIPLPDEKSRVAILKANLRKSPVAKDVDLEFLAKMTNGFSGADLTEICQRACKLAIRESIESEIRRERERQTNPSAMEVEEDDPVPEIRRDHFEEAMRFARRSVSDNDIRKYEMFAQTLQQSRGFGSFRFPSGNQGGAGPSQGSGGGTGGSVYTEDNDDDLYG

## Cc1cc(OCc2nnc(SC3CCCC3)n2-c2cccnc2)ccc1-c1ccc(S(C)(=O)=O)cc1
[1]
  selectivity ratio: 50
[2]
  selectivity ratio: 50
[3]
  EC50: 30 nM
[4]
  EC50: 30 nM
[5]
  IC50: 130 nM
[6]
  selectivity ratio: 50

## O=c1[nH]c2ccccc2n1C1CCN(Cc2ccc(-c3nc4cc5[nH]cnc5cc4nc3-c3ccccc3)cc2)CC1
[7]
  IC50: 3500 nM
[8]
  IC50: 4000 nM

## O=C(CCl)Nc1cccc(NC2=NS(=O)(=O)c3ccccc32)c1
[9]
  IC50: 3000 nM

## C=C(C)CSc1nnc2c(n1)[nH]c1cc(Br)ccc12
[10]
  GI50: 14 nM

## C=C(C)CSc1nnc2c(n1)[nH]c1ccccc12
[10]
  GI50: 136 nM

## CC(C)[C@@H]1CN(c2nc(Nc3cc(C(C)(C)C)[nH]n3)c3cc[nH]c3n2)CCN1
[11]
  IC50: 99 nM

## C[C@@H]1CNCCN1c1nc(Nc2cc(C(C)(C)C)[nH]n2)c2cccc(F)c2n1
[12]
  IC50: 4840 nM
[13]
  IC50: 230 nM

## C[C@@H]1CNCCN1c1nc(Nc2cc(C(C)(C)C)[nH]n2)c2ccccc2n1
[11]
  IC50: 4400 nM

## Cc1cc(OCc2cnc(SC3CCCC3)n2-c2cccnc2)ccc1C#CCCNC(C)C
[14]
  IC50: 7 nM

## Nc1nc(O)c2ncn(COC(CO)CO)c2n1 [GANCICLOVIR]
[15]
  IC50: 1300 nM

## CC(=O)c1c(O)c(C)c(O)c(Cc2c(O)c3c(c(C(=O)/C=C/c4ccccc4)c2O)OC(C)(C)C=C3)c1O [ROTTLERIN]
[7]
  IC50: 250 nM
[8]
  IC50: 570 nM
